Measurements as given in patent US20230310394A1 (THE SECOND XIANGYA HOSPITAL OF CENTRAL SOUTH UNIVERSITY, priority 2020, published 2023).
Several values for one entry are separate records, joined by “and”; a condition that tells them apart may be missing. Equal values may be shown once.

Experiments:
Format in all cases: cell-based, Human
[1] = system: HEL cells; assay: Anti-proliferative test, CellTiter-Lumi luminescence method, HEL cells; conditions: 72 hours; for average proliferation rate: HEL cells, relative to DMSO control
Experimental: (§1) HEL (Human erythroleukemia cell line) and drug-resistant HEL cells were cultured in RPMI medium (Gibco) containing 20% heat-inactivated fetal bovine serum (Gibco) and 1% penicillin/streptomycin (Gibco).
(§2) To test the anti-proliferative effect of the inhibitors, the above cell lines were cultured at a 3000 cells/200 μL per well, added with increasing concentrations of the inhibitors (concentration gradient: 0, 1, 2.5, 5, 10, 20 μM), then supplemented with DMSO to an equal volume. 4 parallel replicate groups and 3 blank wells (culture medium wells without cells) were set. After 72 hours, the cell proliferation was detected by a multi-plate reader using CellTiter-Lumi™ luminescence method (Beyotime), and the IC50 was calculated by Graph Pad prism.
(§3) The calculation formula of cell proliferation rate: cell proliferation rate=(Luminescence value of drug-treated group—average Luminescence value of blank wells)/(Luminescence value of DMSO control group—average Luminescence value of blank wells)×100%.

[2] = system: HEL^RE (HEL-resistant, ruxolitinib-resistant) cells; assay: Apoptosis detection by flow cytometry after Annexin V-PI staining, HEL-resistant model; conditions: 24 hours
From the text: (§4) Three parallel replicate groups were set up, and the apoptosis of cells was detected by flow cytometry after Annexin V-PI staining.
(§5) The calculation formula of the apoptosis rate: apoptosis rate=ratio of early apoptotic cells (Annexin V+/PI−)+ratio of late apoptotic cells and necrotic cells (Annexin V+/PI+).

[3] = system: HEL^RE (HEL-resistant, ruxolitinib-resistant) cells; assay: Anti-proliferative test, CellTiter-Lumi luminescence method, HEL-resistant model; conditions: for IC50: HEL^RE cells
Experimental: as §1
(§6) HEL^PE model, namely HEL-persistent model, was constructed by treating HEL blast cells with a high concentration of ruxolitinib that exceeded the IC50 concentration of blast cells by more than 100 times, wherein the concentration of ruxolitinib used herein was 2.0 μM. The culture medium of the cells was changed every two days, the cells that cannot tolerate the high concentration of ruxolitinib died quickly, while the proliferated cells were DTP (drug-tolerant-persisters), and this cell subset was difficult to be killed by antitumor drugs. Stable drug-resistant cells were obtained after 4-6 weeks. Another drug resistance model is HEL^RE, namely the HEL-resistant model, which was constructed by treating blast cells with ruxolitinib from a starting concentration lower than the IC50 concentration of blast cells, slowly increasing to a high concentration to keep the cells from being killed. The starting concentration used herein was 0.1 μM, the drug was added as soon as the cells proliferated, the dosing gradient was 1.25-fold increments, and the final concentration was 2.0 μM. Stable drug-resistant cells were obtained after 4-6 weeks.
as §2, §3
The method to evaluate whether the model is successfully constructed is to compare the IC50 of drug-resistant cells and naive cells, the obtained ratio was the drug-resistance index, and if the ratio was greater than 3, then the model was successfully constructed.

[4] = system: HEL cells; assay: Apoptosis detection by flow cytometry after Annexin V-PI staining, HEL cells; conditions: 24 hours
From the text: as §4, §5

[5] = system: HEL^PE (HEL-persistent, ruxolitinib-resistant) cells; assay: Apoptosis detection by flow cytometry after Annexin V-PI staining, HEL-persistent model; conditions: 24 hours
From the text: as §4, §5

[6] = system: HEL^PE (HEL-persistent, ruxolitinib-resistant) cells; assay: Anti-proliferative test, CellTiter-Lumi luminescence method, HEL-persistent model; conditions: for IC50: Homo sapiens, HEL^PE cells, 72 hours
Experimental: as §1, §6
as §2, with “4 parallel replicate groups and 3 blank wells (culture medium wells without cells) were set.” left out
The calculation formula of cell proliferation rate: cell proliferation rate=(Luminescence value of drug-treated group—average Luminescence value of blank wells)/(Luminescence value of DMSO control group—average Luminescence value of blank wells)×100%. […]

SMILES | average proliferation rate ([1]; 1 μM) | average proliferation rate ([1]; 2.5 μM) | average proliferation rate ([1]; 5 μM) | average proliferation rate ([1]; 10 μM) | average proliferation rate ([1]; 20 μM) | average apoptosis rate ([2]; 2.5 μM) | average apoptosis rate ([2]; 5 μM) | average apoptosis rate ([2]; 10 μM) | IC50 ([3]; Homo sapiens, 72 h) [µM] | average apoptosis rate ([4]; 2.5 μM) | average apoptosis rate ([4]; 5 μM) | average apoptosis rate ([4]; 10 μM) | IC50 ([1]; Homo sapiens, HEL naive cells, mean (95% confidence interval)) [µM] | IC50 ([3]; 72 hours) [µM] | drug-resistance index ([3]; ratio of IC50 of HEL^RE cells to IC50 of naive HEL cells) | average apoptosis rate ([5]; 2.5 μM) [%] | average apoptosis rate ([5]; 5 μM) [%] | average apoptosis rate ([5]; 10 μM) [%] | IC50 [6] [µM] | drug-resistance index ([6]; ratio of IC50 of HEL^PE cells to IC50 of naive HEL cells)
CNC(=O)c1cc(Oc2ccc(NC(=O)Nc3ccc(Cl)c(C(F)(F)F)c3)c(F)c2)ccn1 [regorafenib] | 84.7% | 57.7% | 32.1% | 17.7% | 1.15% | 9.50% | 12.9% | 14.7% | 0.514 | 4.31% | 7.76% | 10.6% | – | – | – | – | – | – | – | –
N#CC[C@H](C1CCCC1)n1cc(-c2ncnc3[nH]ccc23)cn1 [ruxolitinib, Ruxolitinib] | 41.4% and 50.5% | 40.6% and 48.4% | 42.8% and 50.2% | 40.8% and 48.4% | 22.9% and 28.5% | 1.16% and 3.75% | 1.35% and 3.70% | 1.05% and 4.34% | – | 4.65% and 2.05% | 5.07% and 2.14% | 4.59% and 2.16% | 0.05 | 24.9 | 498 | 0.920 | 1.11 | 0.740 | 25.5 | 510
CNC(=O)c1cc(Oc2ccc(NC(=O)Nc3ccc(Cl)c(C(F)(F)F)c3)cc2)ccn1 [sorafenib] | 80.3% | 72.1% | 40.0% | – | 0.828% | 1.22% | 5.58% | 18.6% | 3.56 | 5.82% | 10.9% | 16.1% | – | – | – | 2.16 | 11.1 | 18.0 | 2.8 | –
